Laboratory results as given in ChEMBL document CHEMBL1123385, “Stereoselectivity of a potent calcium antagonist, 1-benzyl-3-pyrrolidinyl methyl 2,6-dimethyl-4-(m-nitrophenyl)-1,4-dihydropyridine-3,5-dicarboxylate” (J Med Chem, 1986).

Tests used:
Rattus norvegicus = organism: Rattus norvegicus; experiment: Hill coefficient of the compound; conditions: in vitro
[1] = molecular target: Voltage-gated L-type calcium channel (Rattus norvegicus, UniProt P22002+Q02485+P27732); experiment: Inhibition of [3H]nitrendipine binding to L-type calcium channel from rat brain cortex homogenate
Canis familiaris = experiment: The compound was tested for coronary vasodilating activity in anesthetized coronary perfused dogs; assay type: functional, Canis lupus familiaris

Molecule `COC(=O)C1=C(C)NC(C)=C(C(=O)OCCN(C)Cc2ccccc2)C1c1cccc([N+](=O)[O-])c1` (racemic) [NICARDIPINE] has a Hill coefficient (Rattus norvegicus) of 1.054 and a Ki [1] of 0.84 nM l-1.
`CO/C(O)=C1\C(C)=NC(C)=C(C(=O)O[C@H]2CCN(Cc3ccccc3)C2)[C@H]1c1cccc([N+](=O)[O-])c1.Cl` gave a Hill coefficient (Rattus norvegicus) of 1.203, a Ki [1] of 0.205 nM l-1 and an ED100 (Canis familiaris) of 0.57 µg.
`CO/C(O)=C1\C(C)=NC(C)=C(C(=O)O[C@@H]2CCN(Cc3ccccc3)C2)[C@@H]1c1cccc([N+](=O)[O-])c1.Cl` was tested, and the Hill coefficient (Rattus norvegicus) was 1.143, the Ki [1] was 14.3 nM l-1 and the ED100 (Canis familiaris) was 3.1 µg.
Work on `CO/C(O)=C1\C(C)=NC(C)=C(C(=O)O[C@H]2CCN(Cc3ccccc3)C2)[C@@H]1c1cccc([N+](=O)[O-])c1.Cl` (racemic) yielded a Hill coefficient (Rattus norvegicus) of 0.957, a Ki [1] of 49.6 nM l-1 and an ED100 (Canis familiaris) of 9.1 µg.
`COC(=O)C1=C(C)NC(C)=C(C(=O)OCCN(C)Cc2ccccc2)[C@H]1c1cccc([N+](=O)[O-])c1` showed a Hill coefficient (Rattus norvegicus) of 1.286 and a Ki [1] of 0.499 nM l-1.
Molecule `CO/C(O)=C1\C(C)=NC(C)=C(C(=O)O[C@@H]2CCN(Cc3ccccc3)C2)[C@H]1c1cccc([N+](=O)[O-])c1.Cl` has a Hill coefficient (Rattus norvegicus) of 0.752, a Ki [1] of 3.09 nM l-1 and an ED100 (Canis familiaris) of 1.6 µg.
Molecule `COC(=O)C1=C(C)NC(C)=C(C(=O)OC)C1c1ccccc1[N+](=O)[O-]` [NIFEDIPINE] has a Hill coefficient (Rattus norvegicus) of 1.105.
With `COC(=O)C1=C(C)NC(C)=C(C(=O)OCCN(C)Cc2ccccc2)[C@@H]1c1cccc([N+](=O)[O-])c1` the Hill coefficient (Rattus norvegicus) was 1.241 and the Ki [1] was 7.11 nM l-1.
